The results in this text go back to patent US11419335B2, “N-arylated analogues and uses thereof” (University of Florida Research Foundation, Incorporated, priority 2016, dated 2022).

Marks after values point to notes of the source that are not given here.

For experiment [1], the system named is C. albicans SC5314 biofilms. The experiment is described as follows: MTT assay for fungal biofilm eradication (MBEC), C. albicans. Format: cell-based, Candida albicans. As to conditions: Table 2B, 90% eradicated biofilm. On the procedure:
One colony was picked from a 24-hour old culture of Candida spp. or 48-hour old culture of C. neoformans and added to YPD liquid medium for inoculation and cultured at 37° C. overnight. Cells were then washed with PBS (Phosphate-buffered saline (10 mM potassium phosphate, 150 mM NaCl, pH 7.0)) and standardized to OD600=1.0. Microtiter wells were then treated with 50% FCS (Fetal calf serum) in PBS for at least 30 min at room temperature (FCS pre-treatment is not absolutely required for Candida spp.). The FCS was aspirated and microtiter wells were rinsed once with 200 μL PBS before 100 μL of the cell suspension was added to each microtiter well. The plate was then incubated statically at 37° C. for 2 hours. Non-adherent cells were then removed by aspiration and microtiter wells were washed with PBS twice to remove loosely associated cells.
The resulting cell culture was aspirated and wells were rinsed once with 200 μL PBS. Controls and compounds were diluted in YNB medium (200 μL) were added to microtiter wells.
Following incubation, the culture was aspirated and wells are rinsed twice with 200 μL PBS before 100 μL of MTT (0.5 mg/mL dissolved in PBS containing 1% glucose) was added to each microtiter well. The plate was then incubated at 37° C. for 30 min, or longer, until dark blue/black crystals formation could be observed (usually 2 hours at most). The MTT reaction was terminated by aspiration of the solution. The crystals were then solubilized by adding 100 μL of 40% acetic acid to the microtiter wells. Killing efficacies were monitored by eye or quantitatively measured using a plate reader (absorbance at 550 nm). MBEC values were determined as the lowest compound concentration leading to 90% eradicated biofilm. All MBEC values using the MTT assay were recorded from at least three independent experiments.
In general terms: Tetrazolium dyes change colour on reduction, which living cells bring about.

Experiment [2] relates to C. albicans SC5314. Briefly: Minimum fungicidal concentration assay, C. albicans. Format: cell-based, Candida albicans. The following applies: Table 2B.
In experiment [3] the test system is C. albicans SC5314. Briefly: Fungal MIC susceptibility assay, C. albicans. Type of experiment: cell-based, Candida albicans. As to conditions: for C. albicans SC5314 MIC: Table 2B. On the procedure:
(§1) Fungal minimum inhibition concentrations (MICs) were determined using standard microdilution methods according to the Clinical and Laboratory Standards Institute document M27-A3. The test compound concentration ranged from 0.01 to 100 μM. Amphotericin B (AmB) and itraconazole (ITC) (Fisher Scientific) were included as positive controls. DMSO, the vehicle control, was used at ≤1% v/v for these experiments. The fungal M27-A3 standard MIC assay protocol requires the following inoculum preparation protocol: The organisms were cultured onto PDA medium at 35° C. The inoculum is prepared by picking five colonies from 24-hour old culture of Candida spp. or 48-hour old culture of C. neoformans. The inoculum was suspended in 5 ml of sterile water, the resulting suspension was vortexed for 15 seconds and the cell density adjusted (by adding more sterile water) to an OD530=0.30, which yields a suspension of 1×10^6 to 5×10^6 cells per mL. The suspension was diluted 50 times and then 20 times using RPMI 1640 medium to obtain the two times test inoculum (1×10^3 to 5×10^3 cells per mL). The following steps are the same with the standard bacterial MIC protocol using 96-well plates. NOTE: RPMI 1640 medium was used in the fungal MIC assay (for both cell inoculum and compound dilution).

Experiment [4] relates to C. neoformans ATCC 66031. The experiment is described as follows: Fungal MIC susceptibility assay, C. neoformans. Format: cell-based. As to conditions: for C. neoformans 66031 MIC: Table 2B. On the procedure: as §1
The subject of experiment [5] is C. neoformans ATCC 66031. Briefly: Minimum fungicidal concentration assay, C. neoformans. Format: cell-based. The following applies: Table 2B.
Experiment [6] concerns MRSA-2 biofilms. Briefly: Calgary Biofilm Device assay (MBC/MBEC), MRSA-2. Format: cell-based, Staphylococcus aureus. As to conditions: Table 2A; CBD assay. As to the method: (§2) The lid of the Calgary device was then removed, washed and transferred to another 96-well plate containing 2-fold serial dilutions of the test compounds (the “challenge plate”). The total volume of media with compound in each well in the challenge plate is 150 μL. […] The lid was then removed from the challenge plate and MBC/MBEC values were determined using different final assays. […] The MBC values were determined as the concentration giving a lack of visible bacterial growth (i.e., turbidity). […] In select experiments, pegs from the Calgary device were removed from lead biofilm eradicators after final incubation, sonicated for 30 minutes in PBS and plated out to determine biofilm cell killing of lead biofilm-eradicating agents (i.e., colony forming unit per milliliter, CFU/mL).
(§3) Using a Calgary Biofilm Device, bacterial biofilms are established on pegs suspended to the bottom of a 96-well plate lid. Following biofilm establishment on lid pegs, lids are then transferred to new 96-well plates containing serial dilutions of test compound and allowed to incubate. After compound treatment, 96-well plate lids with pegs are once again transferred to 96-well plates containing fresh media. During this final phase of the assay, viable biofilms will grow and disperse planktonic cells into the media where they will grow and give a turbid well result. Conversely, wells that have no growth are a result of pegs that had eradicated bacterial biofilms. The lowest concentration at which no turbidity is observed is the minimum biofilm eradication concentration (MBEC). Using the Calgary Biofilm Device, both minimum biofilm eradication concentrations and minimum bactericidal concentrations (MBC) for planktonic bacterial can be determined using one assay from a single bacterial culture (FIG. 3A).

The subject of experiment [7] is MRSA BAA-1707 biofilms. The experiment is described as follows: Calgary Biofilm Device assay (MBC/MBEC), MRSA BAA-1707. Type of experiment: cell-based, Staphylococcus aureus. On the procedure:
as §2, §3

In experiment [8] the test system is MRSE ATCC 35984 biofilms. Briefly: Calgary Biofilm Device assay (MBC/MBEC), MRSE 35984. Format: cell-based, Staphylococcus epidermidis. On the procedure:
as §2, §3

Experiment [9] deals with VRE ATCC 700221 biofilms. The experiment is described as follows: Calgary Biofilm Device assay (MBC/MBEC), VRE 700221. Format: cell-based, Enterococcus faecium. As to conditions: for VRE MBC / VRE MBEC: Table 2A; for VRE 700221 MBEC: biofilm. On the procedure: as §2, §3
Setting [10] is: Table 2, CBD assay, planktonic cells.

Take `CCCCCCCCCCCCCCCC[N+](C)(C)Cc1ccccc1.[Cl-]` [BAC-16, reference compound]: in experiment [1], the “C. albicans SC5314 MBEC” value is on record as 15.63. In [2], this molecule showed a C. albicans SC5314 MBC of 6.25 µM. Besides, the C. albicans SC5314 MIC in experiment [3] stood at 3.13 µM. The “MIC C. albicans SC5314” value in experiment [3] (Table 4, antifungal) is 3.13 µM. The molecule also yielded a C. neoformans 66031 MIC in experiment [4] of 3.12 µM. Also, in experiment [4] (Table 4, antifungal), the “MIC C. neof 66031” value came to 6.25 µM. Moreover, in [5], the C. neoformans 66031 MBC turned out to be 6.25 µM.

Consider `CCCCCCCCCCCCCCCCn1cc[n+](C)c1C.[I-]` [Compound 8], for which, in experiment [6], the “MRSA-2 MBC” value stood at 11.7 µM and the “MRSA-2 MBEC” value was found to be 23.5 µM. For the same molecule, the “C. albicans SC5314 MBEC” value in [1] worked out at 15.63. Further, in [7] (Table 2A, CBD assay), the “MRSA BAA-1707 MBC” value is reported as 11.7^a/ μM and the “MRSA BAA-1707 MBEC” value was 31.3 µM. Also, the C. albicans SC5314 MBC in [2] was 6.25 µM. For the same molecule, in [8] (Table 2A, CBD assay), the “MRSE 35984 MBC” value was 3.0^a/ μM and the “MRSE 35984 MBEC” value is listed as 3.0^a μM. In experiment [3], the C. albicans SC5314 MIC came out at 3.13 µM. In addition, the “MIC C. albicans SC5314” value in experiment [3] (Table 4, antifungal) was 3.13 µM. In addition, the C. neoformans 66031 MIC in experiment [4] was 1.56 µM. Moreover, in [4] (Table 4, antifungal), the “MIC C. neof 66031” value came to 6.25 µM. For the same molecule, in experiment [9] (CBD assay), the “VRE MBC” value is given as 3.9/3.9 μM and the “VRE MBEC” value is given as 3.9/3.9 μM. In experiment [5], this molecule gave a C. neoformans 66031 MBC of 6.25 µM.

Consider `CCCCCCCCCCCCCCCCn1cc[n+](CCO)c1C.[Br-]` [Compound 11], for which, in experiment [6], the “MRSA-2 MBC” value came out at 11.7 µM and the “MRSA-2 MBEC” value was 31.3 µM. For the same molecule, in [1], the “C. albicans SC5314 MBEC” value is listed as 7.82. In [7] (Table 2A, CBD assay), the “MRSA BAA-1707 MBC” value is on record as 23.5^a/ μM and the “MRSA BAA-1707 MBEC” value was 46.9^a μM. The same molecule showed a C. albicans SC5314 MBC in experiment [2] of 6.25 µM. In [8] (Table 2A, CBD assay), the “MRSE 35984 MBC” value is on record as 3.9/3.9 μM and the “MRSE 35984 MBEC” value is 3.9/3.9 μM. Further, in experiment [3], the C. albicans SC5314 MIC came to 3.13 µM. Further, the “MIC C. albicans SC5314” value in experiment [3] (Table 4, antifungal) was found to be 3.13 µM. The C. neoformans 66031 MIC in experiment [4] stood at 1.56 µM. Moreover, in [4] (Table 4, antifungal), the “MIC C. neof 66031” value stood at 6.25 µM. In experiment [9] (CBD assay), the “VRE MBC” value was 3.0^a/ μM and the “VRE MBEC” value worked out at 3.9 µM. Besides, in [5], the C. neoformans 66031 MBC turned out to be 3.13 µM.

Turning to `CCCCCCCCCCCCCCCCn1cc[n+](Cc2cccc(F)c2)c1C.[Br-]` [Compound 18], in experiment [6], the “MRSA-2 MBC” value is reported as 93.8^a/93.8^a μM and the “MRSA-2 MBEC” value is given as 93.8^a/93.8^a μM. In experiment [8] (Table 2A, CBD assay), the “MRSE 35984 MBC” value is 11.7^a/ μM and the “MRSE 35984 MBEC” value was 11.7^a μM. In experiment [9] (CBD assay), the “VRE MBC” value is given as 5.85^a/ μM and the “VRE MBEC” value is recorded as 11.7^a μM.

With `CCCCCCCCCCCCCCCCn1cc(-c2ccccc2)[n+](C)n1.[I-]` [Compound 30], in experiment [6], the “MRSA-2 MBC” value was 31.3^b/31.3 μM and the “MRSA-2 MBEC” value is on record as 31.3^b/31.3 μM. In [7] (Table 2A, CBD assay), the “MRSA BAA-1707 MBC” value is recorded as 11.7^a/ μM and the “MRSA BAA-1707 MBEC” value is on record as 23.5^a μM.

For orientation: MIC means the lowest concentration that inhibits growth of the organism. In the case of `CCCCCCCCCCCCCCCCn1cc[n+](Cc2ccccc2)c1C` [NH125, 3-benzyl-1-hexadecyl-2-methyl-1H-imidazol-3-ium bromide, reference compound], in experiment [7], the “minimum biofilm eradication concentration (MBEC), MRSA BAA-1707 biofilms” value came to 46.9 µM. Besides, the MBC in experiment [7] (Staphylococcus aureus, Table 2, CBD assay, planktonic cells) was 23.5 µM; in experiment [8] (Staphylococcus epidermidis, Table 2, CBD assay, planktonic cells), 15.6 µM; in [9] (Enterococcus, Table 2, CBD assay, planktonic cells) it was 59 µM. The “MRSA BAA-1707 MBEC” value in [7] (Table 2, CBD assay, biofilm) was determined as 46.9 µM. The “reduction of viable biofilm cells” value in experiment [7] (at 62.5, colony counts of CBD pegs, MRSA BAA-1707) was in the range of 3 to 4 log. Besides, the “MRSE 35984 MBEC” value in [8] (Table 2, CBD assay, biofilm) was found to be 5.9 µM. For the same molecule, the minimal inhibitory concentration (MIC) worked out at 3.13 µM in [3] (Candida albicans, SC5314, Table 4, antifungal) and 3.13 µM in experiment [4] (Cryptococcus neoformans, ATCC66031, Table 4, antifungal, read-out: MIC C. neof 66031). Further, in experiment [9] (Table 2, CBD assay), the “VRE 700221 MBEC” value came to 11.7 µM.

`CCCCCCCCCCCC[N+](C)(C)CC[N+](C)(C)CC[N+](C)(C)CCCCCCCCCCCC` [QAC-10, reference compound]: in experiment [6], the “MRSA-2 MBC” value was determined as 31.3 µM. In addition, the “MRSA-2 MBEC” value in [6] stood at 125 µM. Moreover, the “MRSA BAA-1707 MBEC” value in experiment [7] (Table 2, CBD assay, biofilm) is given as 93.8^a/93.8^a μM; in experiment [7] (Table 2A, CBD assay), 93.8^a μM. Also, the “MRSA BAA-1707 MBC” value was 93.8^a/93.8^a μM in [7] (setting [10]) and 93.8^a/ μM in experiment [7] (Table 2A, CBD assay). In addition, the “MBEC, MRSE biofilms” value in experiment [8] (MRSE ATCC 35984) amounted to 31.3 µM. The “MRSE 35984 MBEC” value is 31.3/31.3 μM in experiment [8] (Table 2, CBD assay, biofilm) and 31.3 µM in experiment [8] (Table 2A, CBD assay). Besides, the “MRSE 35984 MBC” value in [8] (setting [10]) was 31.3/31.3 μM; in [8] (Table 2A, CBD assay) it was 31.3 µM⁻¹. For the same molecule, in experiment [9], the “MBEC, VRE biofilms” value was 3.0 µM. Further, in experiment [9] (Table 2, CBD assay), the “VRE 700221 MBEC” value was 3.0^a/3.0^a μM. Moreover, the “VRE 700221 MBC” value in experiment [9] (setting [10]) is 3.0^a/3.0^a μM. Further, in experiment [9] (CBD assay), the “VRE MBC” value was 3.0^a/ μM. Moreover, the “VRE MBEC” value in experiment [9] (CBD assay) is recorded as 3.0^a μM.
